What was measured:
[1] = test system: Aspergillus niger ATCC 6275; conditions: Sabouraud agar, 3 days at 28° C.
Protocol: (§1) Determination of the Minimum Inhibitory Concentration (MIC Value)
(§2) The procedure to determine the antimicrobial activity of the compounds of the invention is as follows:
Sabouraud agar for the pre-culture of Aspergillus niger.
(§3) Sabouraud agar for determining the MIC value of Aspergillus niger and Candida albicans.
(§4) deionised water or EtOH as solvent.
(§5) The test substances are predissolved in deionised water or in ethanol and incorporated in a dilution series in agar warmed to 47-50° C.
The mould is cultured on Sabouraud agar and rinsed off with 0.85% sodium chloride solution containing 0.01% Triton X-100.
(§6) All the test organisms are adjusted to an organism count of from 10^6 to 10^7 CFU/ml using 0.85% sodium chloride solution.
(§7) The organism suspensions are each pipetted in an amount of 10 μl onto an agar plate containing the test substance. The test batches are then incubated for 2 days at 37° C. (bacteria and yeast) or for 3 days at 28° C. (Aspergillus niger). In order to check the influence of the solvent used (deionised water, ethanol), organism suspensions are in addition incubated on agar plates without test substances (control plates).
(§8) After incubation, the growth of the microorganisms on the test substances is compared with the control plates. The minimum inhibitory concentration (MIC value) is the concentration of substance at which (compared with the control plates) a clear inhibition of growth of the test organisms is to be ascertained.
(§9) The microbiological data ascertained are compiled in Table 1.

[2] = test system: Escherichia coli NCTC 8196; conditions: Mueller Hinton agar, 2 days at 37° C.
Description: as §1, §2
(§10) Casein/soybean flour peptone bouillon for the preparation of pre-cultures of the test bacteria and yeast.
(§11) Mueller Hinton agar for determining the MIC value of bacteria.
as §4, §5
(§12) Bacteria and yeast are incubated for from 18 to 24 hours at 37° C. in casein/soybean flour peptone bouillon.
as §6, §7, §8, §9

[3] = test system: Staphylococcus hominis DSM 20328; conditions: Mueller Hinton agar, 2 days at 37° C.
Description: as §1, §2, §10, §11, §4, §5, §12, §6, §7, §8, §9

[4] = test system: Candida albicans ATCC 10231; conditions: Sabouraud agar, 2 days at 37° C.
Description: as §1, §2, §10, §3, §4, §5, §12, §6, §7, §8, §9

[5] = test system: Staphylococcus aureus ATCC 6538; conditions: test substance 1600 ppm, contact time 5 minutes at 20° C., 0.3% bovine serum albumin
Protocol: Suspension Test to Determine the Bactericidal Activity in Accordance with the European Standard According to EN 1276
Staphylococcus aureus ATCC 6538.
5 minutes at 20° C. (+/−1° C.).
Inactivation Medium After the Contact Time
D/E neutralisation solution (Dey-Engley, consisting of 0.1% sodium thioglycolate,
0.5% Tween 80, and also 0.7% lecithin and sterile, deionised water ad 100%).
Casein/soybean flour peptone agar with lecithin, L-histidine, and Tween 80 as inactivating agent
(Merckoplate No. 18360, Merck-Darmstadt).
Incubation of the Test Plates
Precaration of the Pre-Culture
The bacteria cultures are cultured on casein/soybean flour peptone slant agar and incubated for from 18 to 24 hours at 37° C. They are then rinsed off with water and adjusted to a bacteria count of 1.5×10^8-5×10^8 CFU/ml.
All of the reagents required for the test are first equilibrated at 20° C. (+/−1° C.). 1.0 ml of 0.3% bovine serum albumin (in deionised water) is introduced into a test tube. After the addition of 1.0 ml of bacteria suspension (1.5×10^8-5×10^8 CFU/ml), the solution is mixed and maintained at 20° C. for 2 minutes (+/−10 seconds). 8.0 ml of the test substance (2000 ppm solution in water) are then added. The mixture is incubated for 5 minutes at 20° C. (+/−1° C.). […] After the period of incubation, the number of colonies is counted and quoted as a logarithmic reduction (log 10) of the bacteria.

SMILES	MIC values A. niger [1] [ppm]	MIC values E. coli [2] [ppm]	MIC values S. hominis [3] [ppm]	MIC values C. albicans [4] [ppm]	Logarithmic reduction Staphylococcus aureus [5] [log 10]
CCCCCCCC[N+](C)(C)Cc1ccc(-c2ccc(C[N+](C)(C)CCCCCCCC)cc2)cc1.[Cl-].[Cl-] [Compound of formula (3), 4,4′-Bis(N,N-dimethyl-N-octyl-ammoniummethyl)biphenyl dichloride]	2.5	1	5	10	5.6
CCCCCC[N+](C)(C)Cc1ccc(-c2ccc(C[N+](C)(C)CCCCCC)cc2)cc1.[Cl-].[Cl-] [Compound of formula (2), 4,4′-Bis(N,N-dimethyl-N-hexyl-ammoniummethyl)biphenyl dichloride]	2.5	5	50	50	5.6
CCCCCCCCCCCCCCCC[N+](C)(C)Cc1ccc(-c2ccc(C[N+](C)(C)CCCCCCCCCCCCCCCC)cc2)cc1.[Cl-].[Cl-] [Compound of formula (5), 4,4′-Bis(N,N-dimethyl-N-hexadecyl-ammoniummethyl)biphenyl dichloride]	1000	1000	100	500	–
CCCCCCCCCCCC[N+](C)(C)Cc1ccc(-c2ccc(C[N+](C)(C)CCCCCCCCCCCC)cc2)cc1.[Cl-].[Cl-] [Compound of formula (4), 4,4′-Bis(N,N-dimethyl-N-dodecyl-ammoniummethyl)biphenyl dichloride]	100	250	10	25	–

Reference: US6730655B2, “Biphenyl diquaternary ammonium compounds” (Ciba Specialty Chemicals Corporation, priority 2000, dated 2004)
